“And” between values parts separate entries of the source, which are not always exact repeats. Equal entries are not always repeated. Where two headings read alike, the source gives them in different places.
What was measured:
[1] = male, Wistar/ST, rat, in vivo
Experimental: 0.5-ml blood sampling was performed over time through a sampling port of the cannula placed on the occipital region of the rat's head. For measurement of transfer of the drug to the ocular tissues, rats were euthanized with an excess amount of sodium pentobarbital solution and the ocular tissues were removed. The tissues were pretreated, extracted and measured to determine the concentration of the drug by HPLC.
Determination of the concentration of N-(4-fluorophenylsulfonyl)-L-valyl-L-leucinal in the samples was carried out by HPLC under the following conditions.

[2] = in vivo; details: male, Wistar/ST, rat
[3] = In vivo test-2: SJA6017 transdermal patch, transfer to the plasma and ocular tissues; parameters: species or system Wistar/ST rats; details: transdermal application, 12 hours after application
Excerpt: A study of SJA6017-containing transdermal patch according to the formula below was made for examining transfer of SJA6017 from the patch to the plasma and to the ocular tissues, and comparison of the results with those from intravenous injection was also made.
The hair was removed under anesthesia with a clipper and a shaver carefully to avoid injuring the skin. A SJA6017 transdermal patch having a drug-containing layer according to the above formula with the size of 5.0×6.0 cm (30 cm^2) was applied to the animals (n=10) of the percutaneous administration group on the abdominal skin and secured in position with a supporting tape to prevent it from falling. After 12 hours of application, the animals were sacrificed and the blood was collected from the abdominal aorta, and the plasma separated. The eyes were excised at the same time. Each of the eyes was separated into the aqueous humor, the lens and the other tissues (consisting of the cornea, the sclera, the iris-ciliary body, the vitreous body and the retina-choroid), and corresponding tissues separated from the 20 eyes were combined, respectively, to make a sample.

[4] = In vivo test-2: intravenous administration experiment; parameters: species or system Wistar rats; details: intravenous injection 2 mg/kg, rat, 15 minutes after injection
Experimental: An intravenous administration experiment was carried out using 5 male Wistar rats (body weight approx. 600 g: 592±34 g) by administering 2 mg/kg SJA6017 through the tail vein of the animals under pentobarbital anesthesia. For the administration, a solution was used containing 10 mg SJA6017 dissolved in 10 ml mixture of ethanol/PEG400/water (1/2/1). Fifteen minutes after the intravenous administration, the animals were sacrificed, the blood was collected through the abdominal aorta, and the plasma separated. The eyes were excised at the same time. Each of the eyes was separated into the aqueous humor, the lens and the other tissues (consisting of the cornea, the sclera, the iris-ciliary body, the vitreous body and the retina-choroid), and corresponding tissues separated from the 10 eyes were combined, respectively, to make a sample.

[5] = In vivo test-1: transfer of drugs from transdermal patches to the plasma and ocular tissues
[6] = male, Wistar/ST, rat, plasma, other: transdermal patch applied on the abdominal skin, 10 cm^2
[7] = male, Wistar/ST, rat, plasma, other: transdermal patch applied on the abdominal skin, 10 cm^2 patch

C[C@]12C=CC(=O)C=C1CC[C@@H]1[C@@H]2[C@@H](O)C[C@@]2(C)[C@H]1CC[C@]2(O)C(=O)CO [Prednisolone, prednisolone]
time after application at which plasma concentration reached the peak [1]: 8 h
concentration at 0 h [2]: 0 ng/mL
concentration at 2 h [2]: 220 ng/mL
concentration at 4 h [2]: 288 ng/mL
concentration at 6 h [2]: 70 ng/g and 385 ng/mL
concentration at 8 h [2]: 608 ng/mL
concentration at 12 h [2]: 148 ng/mL
concentration at 18 h [2]: 99 ng/mL
concentration at 24 h [2]: 77 ng/mL

CC(C)C[C@@H](C=O)NC(=O)[C@@H](NS(=O)(=O)c1ccc(F)cc1)C(C)C [SJA6017, N-(4-fluorophenylsulfonyl)-L-valyl-L-leucinal]
concentration at 12 h ([3]; male, Wistar/ST, eye (ocular tissues), other: transdermal patch applied on the abdominal skin, 30 cm^2 patch, 5 W/W% SJA6017 patch 30 cm^2, rat, read-out: Intraocular concentration): 7.2 ng/g
concentration at 12 h ([3]; male, Wistar/ST, lens, other: transdermal patch applied on the abdominal skin, 30 cm^2 patch, SJA6017 patch 30 cm^2, rat, read-out: Intraocular concentration, itemized: Lens): 1.1 ng/g
concentration at 12 h ([3]; male, Wistar/ST, other: transdermal patch applied on the abdominal skin, 30 cm^2 patch, SJA6017 patch 30 cm^2, rat, read-out: Intraocular concentration, itemized: Other ocular tissues (cornea, sclera, iris-ciliary body, vitreous body, retina-choroid)): 13.8 ng/g
concentration at 12 h ([3]; male, Wistar/ST, plasma, other: transdermal patch applied on the abdominal skin, 30 cm^2 patch, 5 W/W% SJA6017 patch 30 cm^2, rat, read-out: Plasma concentration): 47 ± 12 ng/mL
Kp at 12 h ([3]; male, Wistar/ST, rat, eyeball/plasma, other: transdermal patch applied on the abdominal skin, 30 cm^2 patch, SJA6017 patch 30 cm^2, rat, read-out: Eyeball/plasma ratio): ~0.16
Intraocular concentration, itemized: Aqueous humor ([3]; SJA6017 patch 30 cm^2, rat): not detected
Lens: ratio to plasma concentration (100%) ([3]; SJA6017 patch 30 cm^2, rat): (2.3%)*^2
Other ocular tissues: ratio to plasma concentration (100%) ([3]; SJA6017 patch 30 cm^2, rat): (29.6%)*^2
Intraocular concentration, itemized: Aqueous humor [4]: not detected
Intraocular concentration, itemized: Lens [4]: not detected
Other ocular tissues: ratio to plasma concentration (100%) [4]: (27.8%)*^2
Eyeball/plasma ratio ([4]; 2 mg/kg): 13%
concentration at 15 min ([4]; male, Wistar, eye (ocular tissues), read-out: Intraocular concentration): 16 ng/g
Kp at 15 min ([4]; male, Wistar, eyeball/plasma, read-out: Eyeball/plasma ratio): 0.13
concentration at 15 min ([4]; male, Wistar, plasma, read-out: Plasma concentration): 120 ± 16 ng/mL
concentration at 15 min ([4]; male, Wistar, read-out: Intraocular concentration, itemized: Other ocular tissues (cornea, sclera, iris-ciliary body, vitreous body, retina-choroid)): 33.4 ng/g
time after application at which plasma concentration reached the peak ([5]; SJA6017 patch No. S4, 10 cm^2, rat): 12 h
plasma concentration 24 hours after application relative to its peak ([5]; SJA6017 patch No. S4, 10 cm^2, rat, 24 hours): about 85%
concentration at 8 h [5, 6]: 50 ng/mL
concentration at 12 h [5, 6]: 114 ng/mL
concentration at 18 h [5, 6]: 68 ng/mL
concentration at 24 h [5, 6]: 98 ng/mL
concentration at 0 h [5, 7]: 0 ng/mL
concentration at 2 h [5, 7]: 30 ng/mL
concentration at 4 h [5, 7]: 36 ng/mL
concentration at 6 h [5, 7]: 58 ng/mL

— US7052714B1, “Ophthalmic adhesive preparations for percutaneous adsorption” (Senju Pharmaceutical Co., LTD, priority 1999, dated 2006)
